# Source: patent publication EP1170007A1, “REMEDIES” (Takara Shuzo Co, Ltd., priority 1999, dated 2000)
# Columns and labels:
# [1] = tested on: nerve growth factor production by L-M cells; assay: Enhancement of nerve growth factor production in L-M cells (enzyme immunoassay); assay type: cell-based, Rat; settings: for Nerve growth factor concentration: 24 hours, 0 µM control 0.132
# Description: Rat fibroblast L-M cells (ATCC CCL-1.2) were suspended in a M199 medium (Gibco) containing 0.5% Bacto Peptone (Gibco) at a concentration of 1.0 x 10^5 cells/ml. 1 ml of the suspension was inoculated into each well of a 24-well plate. The cells were cultured aseptically. After culturing for 2 days, the medium was removed and substituted with a M199 medium containing 0.5% bovine serum albumin (Sigma). Then, cyclopentenone (final concentration of 1 to 25 µM), 4HCP (Aldrich) (final concentration of 12.5µM) or dipropionylcyclopentenone (final concentration of 3.1 to 9.4 µM) was added thereto. […]
# After completion of the incubation, the concentration of nerve growth factor in the culture was measured by enzyme immunoassay (NGF Emax Immuno Assay System: Promega). […]
# mouse = assay: Single oral dose toxicity in mouse; assay type: in vivo; settings: single dose orally administered to a mouse at 100 mg/kg
# [2] = tested on: HGF production, MRC-5 cells; assay: Enhancement of HGF production in MRC-5 cells (ELISA); assay type: cell-based, Human; settings: 24 hours, negative control defined as 100% (7.2 ng/ml)
# Description: MRC-5 cells (CCL171, Dainippon Pharmaceutical) were suspended in a DME medium (Bio Whittaker) containing 10% fetal calf serum at a concentration of 1 x 10^5 cells/ml. 500 µl of the suspension was placed into a 48-well cell culture plate. After culturing at 37°C in the presence of 5% CO2 for 24 hours, the medium was exchanged for a DME medium containing 1% fetal calf serum. Then, one of samples was added thereto. The plate was incubated for additional 24 hours. The medium was then recovered, and the amount of HGF in the culture medium was measured using Quantikine Human Hepatocyte Growth Factor (HGF) ELISA Kit (Funakoshi). The amount of HGF produced was expressed defining a negative control as 100%. In this case, the amount of HGF produced for the negative control was 7.2 ng/ml. Cyclopentenone (at a final concentration of 20, 40 or 160 µM), GM (at a final concentration of 20, 40, 80 or 160 µM), or dipropionylcyclopentenone (at a final concentration of 32 or 64 µM) was added as a sample. As a negative control, distilled water was added in the same volume as the sample. As a positive control, prostaglandin E1 was added at a final concentration of 0.01, 0.1, 1 or 10 µM.
substance,measurement,setting,value
dipropionylcyclopentenone,Nerve growth factor concentration,[1]; 3.1 µM,0.164 ng/mL
same,Nerve growth factor concentration,[1]; 6.3 µM,0.259 ng/mL
same,Nerve growth factor concentration,[1]; 9.4 µM,0.257 ng/mL
same,production of nerve growth factor by L-M cells (result in words),[1]; 24 hours incubation,enhanced the production of nerve growth factor by L-M cells in a concentration-dependent manner
same,death after single oral dose,mouse,no example of death was observed
same,Increase in HGF production,[2]; 32 µM,120%
same,Increase in HGF production,[2]; 64 µM,144%
